According to US6028222A (priority 1996, dated 2000):
Values joined by “and” are separate entries in the source; they are usually repeats but may differ in a detail not shown here. Equal values may be shown once. Read-outs that look alike come from different tables or passages of the source.

How the values were obtained:
[1] = system: extensor digitorum longus muscle; assay: Muscular tolerance (creatine kinase release from isolated muscle); parameters: species or system Sprague-Dawley rats; conditions: for creatine kinase activity: 15 μl injected
Experimental: The pH of this solution was not adjusted. Apparent pH is equal to 7,6.
Sprague-Dawley rats, weighing between 260 g and 450 g were anesthesized with an i.p. injection of ethyl carbamate (2 ml/kg of a 50% aqueous solution). The extensor digitorum longus muscle was dissected from the right or left hind leg, and placed in buffer medium having the following composition:
The muscle is transiently fixed to a board and maintained in position by tendons. The test product was injected in an amount of 15 μl by means of a 25 μl-capacity Hamilton seringe no 702. The muscle is then placed over a grit and immersed in the buffer solution kept at 37° C. with carbogen bubbling throughout the incubation period. At 30 minutes intervals, the muscles were introduced in a tube containing fresh buffer at 37° C. The procedure was repeated 4 times.
Creatine kinase was measured using a Hitachi 704 model analyzer in conjunction with a reagent kit sold under tradename high performance Enzyline CK NAC 10 (Biomerieux).

[2] = Stabilization of concentrated paracetamol solution by free radical scavengers; format: physicochemical; conditions: for Appearance upon exposure to light, color intensity: 48 hours actinic light; for Appearance at 70° C., color intensity: 48 hours, dark
Experimental: The solutions thus prepared are divided in 10 ml capacity vials, stoppered with a Bromobutyl stopper and capped with an aluminium cap. After autoclaving at 121° C. for 20 minutes, the vials were stored for 48 hours, either in the presence of actinic light at 5500° K. at room temperature or at 70° C. in the dark. The preparation was examined for any change in color.

[3] = Stabilization of dilute paracetamol solution by free radical scavengers (formula A); format: physicochemical; conditions: 48 hours
Experimental: (§1) The solutions thus prepared were divided in 10 ml, 100 ml or 80 ml capacity vials, stoppered with a Bromobutyl stopper and capped with an aluminium cap. The preparation was examined for any pink color development.
After autoclaving at 121° C. for 20 minutes, the vials were stored for 48 hours, either in the presence of actinic light at 5500° K. at room temperature or at 70° C. in the dark (formula A).

[4] = format: physicochemical; conditions: 48 hours
[5] = Stabilization of dilute paracetamol + codein phosphate solution by free radical scavengers; format: physicochemical; conditions: 48 hours
Experimental: The solutions thus prepared were divided in 10 ml capacity vials, stoppered with a Bromobutyl stopper and capped with an aluminium cap. […] The preparation was examined for any change in color.

[6] = toxic metabolite of paracetamol; cited from earlier work
[7] = Stabilization of dilute paracetamol solution by free radical scavengers (formulation B and C); format: physicochemical
Experimental: as §1

[8] = Paracetamol instability in solution and breakdown products; format: physicochemical
[9] = HPLC assay of paracetamol and codein before and after autoclaving; conditions: for assay, after sterilization: 121° C. 20 minutes
[10] = Solubility of paracetamol in dilute solutions (absorbance at 240 nm of filtrate); format: physicochemical
[11] = pH stability of concentrated paracetamol solution; format: physicochemical
Experimental: Vials that had been filled under nitrogen atmosphere by dispensing 10 ml of such solutions, tightly stoppered and capped, were sterilized by autoclaving at 121° C. for 20 minutes, and then in every case exposed, either to a temperature of 105° C. in the dark for 72 hours, or to a radiation of an actinic light at 5000° K. and 25° C. during 264 hours.

[12] = Predicted time to 5% decrease in paracetamol concentration (Arrhenius law); format: physicochemical; conditions: 25° C., optimal pH, aqueous solution; predicted by Arrhenius law
[13] = aqueous solution; cited from earlier work
[14] = cited from earlier work
[15] = 0.2 mg/ml, 124° C. 7 minutes, 48 hours room temperature dark
[16] = C.R.L. 0.2 mg/ml, 124° C. 7 minutes, 48 hours room temperature dark
[17] = containing 0.5 mg/ml of cystein hydrochloride
[18] = no free radical scavenger added
[19] = 50 mg/ml, 124° C. 7 minutes, 48 hours room temperature dark

## Triton-X
[1]; 30 min
  creatine kinase activity: 1802 ± 2114 IU/l
[1]; 60 min
  creatine kinase activity: 1716 ± 978 IU/l
[1]; 90 min
  creatine kinase activity: 155 ± 89 IU/l
[1]; 120 min
  creatine kinase activity: 289 ± 251 IU/l
[1]; Total of 30-120 min
  creatine kinase activity, Total: 14962 IU/l

## O[C@H](CS)[C@H](O)CS (racemic) [Dithiothreitol]
[2]; 1 mg/ml
  Appearance upon exposure to light, color intensity: colorless
  Appearance at 70° C., color intensity: colorless
[3]; 1 mg/ml
  color at 70° C.: colorless
  color upon exposure to light: colorless
[4]; 1 mg/ml
  color at 70° C.: violet pink
  color upon exposure to light: violet pink
[5]; 0.5 mg/ml
  color at 70° C.: colorless
  color upon exposure to light: colorless

## CC(=O)N=C1C=CC(=O)C=C1 [N-acetyl-p-benzoquinone-imine]
[6]
  toxic effect: cytotoxic and hemolytic effect

## Cl.N[C@@H](CS)C(=O)O.O [Cystein hydrochloride monohydrate]
[7]; [15]
  Solution appearance, color: colorless
[7]; 0.5 mg/ml, 124° C. 7 minutes, 48 hours room temperature dark
  Solution appearance, color: colorless
[7]; [16]
  Dosage of paracetamol (in % of theoretical volume): 99.2%
[7]; C.R.L. 0.5 mg/ml, 124° C. 7 minutes, 48 hours room temperature dark
  Dosage of paracetamol (in % of theoretical volume): 99.6%
[7]; dilute paracetamol solution, 2880 min, hydrochloride monohydrate
  Dosage of C.R.L. (in % of theoretical volume): 80% and 95%

## Cl.N[C@@H](CS)C(=O)O [Cystein hydrochloride]
[2]; 1 mg/ml
  Appearance upon exposure to light, color intensity: cloudy
  Appearance at 70° C., color intensity: cloudy
[3]; 0.05 mg/ml
  color at 70° C.: colorless
  color upon exposure to light: colorless
[3]; 0.1 mg/ml
  color at 70° C.: colorless
  color upon exposure to light: colorless
[3]; 0.25 mg/ml
  color at 70° C.: colorless
  color upon exposure to light: colorless
[3]; 0.5 mg/ml
  color at 70° C.: colorless
  color upon exposure to light: colorless
[3]; 0.75 mg/ml
  color at 70° C.: colorless
  color upon exposure to light: colorless
[3]; 1 mg/ml
  color at 70° C.: colorless
  color upon exposure to light: colorless
[3]; 2 mg/ml
  color at 70° C.: colorless
  color upon exposure to light: colorless
[3]; 5 mg/ml
  color at 70° C.: colorless
  color upon exposure to light: colorless
[5]; 0.05 mg/ml
  color at 70° C.: pink
[5]; 1.0 mg/ml
  color at 70° C.: colorless
  color upon exposure to light: colorless
[5]; 2.0 mg/ml
  color at 70° C.: colorless
  color upon exposure to light: colorless
[5]; 5.0 mg/ml
  color at 70° C.: colorless
  color upon exposure to light: colorless

## N[C@@H](CCC(=O)N[C@@H](CS)C(=O)NCC(=O)O)C(=O)O [Reduced glutathion]
[2]; 1 mg/ml
  Appearance upon exposure to light, color intensity: colorless
  Appearance at 70° C., color intensity: colorless
[2]; 8 mg/ml
  Appearance upon exposure to light, color intensity: colorless
  Appearance at 70° C., color intensity: colorless
[3]; 1 mg/ml
  color at 70° C.: colorless
  color upon exposure to light: colorless
[5]; 2.0 mg/ml
  color at 70° C.: colorless
  color upon exposure to light: colorless

## CC(=O)N[C@@H](CS)C(=O)O [N-acetylcystein]
[7]; [15]
  Dosage of C.R.L. (in % of theoretical volume): 88%
  Solution appearance, color: colorless
[7]; [16]
  Dosage of paracetamol (in % of theoretical volume): 99.2%
[5]; 2.0 mg/ml
  color at 70° C.: grey
  color upon exposure to light: grey

## Nc1ccc(O)cc1 [p-aminophenol]
[8]; aqueous or partially aqueous solutions
  p-aminophenol during storage: not detected

## COc1ccc2c3c1O[C@H]1[C@@H](O)C=C[C@H]4[C@@H](C2)N(C)CC[C@@]341 [codein]
[9]; [17]
  assay, non sterilized solution: 0.00042 g/mL
  assay, after sterilization: 0.00042 g/mL
[9]; [18]
  assay, non sterilized solution: 0.00043 g/mL
  assay, after sterilization: 0.00042 g/mL

## NC(N)=S [Thiourea]
[3]; 0.5 mg/ml
  color at 70° C.: colorless
  color upon exposure to light: colorless

## OC[C@@H](O)[C@@H](O)[C@H](O)[C@H](O)CO [Mannitol]
[2]; 50 mg/ml
  Appearance upon exposure to light, color intensity: colorless
  Appearance at 70° C., color intensity: colorless
[7]; 20 mg/ml, 124° C. 7 minutes, 48 hours room temperature dark
  Solution appearance, color: colorless
[7]; 40 mg/ml, 124° C. 7 minutes, 48 hours room temperature dark
  Solution appearance, color: colorless
[7]; [19]
  Solution appearance, color: colorless

## CC(=O)Nc1ccc(O)cc1 [paracetamol, N-acetyl-p-aminophenol]
[10]
  effect of PEG on paracetamol solubility: increased by the presence of PEG
[8]; 50° C., in water or in solution no 20
  time to color development: 2 weeks
[8]; in water or in solution no 20
  color upon exposure to light or storage at high temperature: shows rapidly a pink color
[11]; pH 7,0 (actual pH 5,8), actinic light, 264 hours
  Color development upon storage in the presence of light: extremely weak
[11]; storage in the presence of light
  effect of pH on paracetamol content and breakdown products: Neither the paracetamol content, nor the breakdown products are affected by pH
[12]
  time needed to observe a 5% decrease in paracetamol concentration: 19 months
[13]
  pH of minimal breakdown: ~6
[14]; 0.1% aqueous solution, dark, 120 days
  p-aminophen content from hydrolysis, % of initial paracetamol concentration: ~19,8%
[14]; 1000 ppm of ascorbic acid + EDTA (0.0075%)
  ammonia yield with EDTA added: ≤ 14%
[14]; 1000 ppm of ascorbic acid
  ammonia yield upon exposure to bright light: 98%
[14]; EDTA 0.0075%, 0.1% aqueous solution
  decomposition rate with EDTA: 7%
[14]; in presence or not of 1000 ppm of ascorbic acid
  ammonia concentration on distilling an alkaline solution: 14%
[9]; [17]
  assay, non sterilized solution: 0.0082 g/mL
  assay, after sterilization: 0.0081 g/mL
[9]; [18]
  assay, non sterilized solution: 0.0078 g/mL
  assay, after sterilization: 0.0077 g/mL

## OCC(O)CS (stereo not drawn) [α-monothioglycerol]
[2]; 1 mg/ml
  Appearance upon exposure to light, color intensity: colorless
  Appearance at 70° C., color intensity: colorless
[5]; 0.5 mg/ml
  color at 70° C.: grey
  color upon exposure to light: grey

## O=S([O-])OS(=O)[O-].[Na+].[Na+] [Sodium disulfite]
[2]; 0.295 mg/ml
  Appearance upon exposure to light, color intensity: colorless
  Appearance at 70° C., color intensity: colorless
[4]; 0.295 mg/ml
  color at 70° C.: yellow
  color upon exposure to light: yellow
[5]; 0.295 mg/ml
  color at 70° C.: colorless
  color upon exposure to light: colorless

## Glucose
[7]; [19]
  Solution appearance, color: colorless

## O=C1O[C@H]([C@@H](O)CO)C([O-])=C1O.[Na+] [Sodium ascorbate]
[2]; 1 mg/ml
  Appearance upon exposure to light, color intensity: yellow (+)
  Appearance at 70° C., color intensity: yellow (+)
[3]; 0.2 mg/ml
  color at 70° C.: pink
  color upon exposure to light: pink
[3]; 0.4 mg/ml
  color at 70° C.: yellow
  color upon exposure to light: colorless
[3]; 0.6 mg/ml
  color at 70° C.: yellow
  color upon exposure to light: pink
[3]; 1 mg/ml
  color at 70° C.: yellow
  color upon exposure to light: colorless
[4]; 1 mg/ml
  color at 70° C.: yellow
  color upon exposure to light: yellow
